Experimental data: publication PMC4674339 (European journal of medicinal chemistry, 2015)
“Also recorded” adds a separate entry of the source. Where two headings read alike, the source gives them in different places.

Experiments:
[1] = target: human platelet P2Y1 receptors (Homo sapiens, UniProt P47900); settings: 3 μM ADP; human whole blood; N=3 unless stated
[2] = tested on: ADP induced human platelet aggregation; assay: ADP-induced human platelet aggregation, 96-well microplate method; format: cell-based
platelet P2X1 receptors = target: T1, platelet P2X1 receptors (Homo sapiens, UniProt P51575); assay: P2X1-mediated entry of extracellular Ca2+; format: cell-based
T1 sequence (P51575 1-399): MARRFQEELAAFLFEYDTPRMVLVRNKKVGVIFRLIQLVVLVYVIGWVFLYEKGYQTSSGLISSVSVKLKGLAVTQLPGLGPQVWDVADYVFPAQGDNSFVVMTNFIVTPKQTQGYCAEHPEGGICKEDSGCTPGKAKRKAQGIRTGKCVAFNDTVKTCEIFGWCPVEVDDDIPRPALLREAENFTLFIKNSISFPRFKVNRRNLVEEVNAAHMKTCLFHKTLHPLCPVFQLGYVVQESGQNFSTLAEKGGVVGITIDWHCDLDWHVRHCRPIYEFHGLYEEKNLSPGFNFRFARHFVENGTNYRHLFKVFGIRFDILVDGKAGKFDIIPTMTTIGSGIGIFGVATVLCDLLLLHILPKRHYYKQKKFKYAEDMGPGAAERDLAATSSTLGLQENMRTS

[3] = tested on: ADP induced human platelet aggregation; assay: ADP induced human platelet aggregation by optical aggregometry; format: cell-based; settings: 25 and 100 nM; pre-incubation 0, 5, 15 min; data not shown
[4] = tested on: GPIIb-IIIa and P-selectin on the surface of human platelets; assay: Reversibility of inhibition of activation marker expression after dilution; format: cell-based; settings: 30 min with 10 nM, then 100x dilution with platelet poor plasma; 20 μM ADP
human P2Y2 receptors = human P2Y2 receptors (Homo sapiens, UniProt P41231); assay: Effect on human P2Y2 receptors; settings: data not shown
human P2Y4 receptors = human P2Y4 receptors (Homo sapiens, UniProt P51582); assay: Effect on human P2Y4 receptors; settings: data not shown
human P2Y6 receptors = human P2Y6 receptors (Homo sapiens, UniProt Q15077); assay: Effect on human P2Y6 receptors; settings: data not shown
human P2Y6 receptors, sequence (Q15077 whole entry): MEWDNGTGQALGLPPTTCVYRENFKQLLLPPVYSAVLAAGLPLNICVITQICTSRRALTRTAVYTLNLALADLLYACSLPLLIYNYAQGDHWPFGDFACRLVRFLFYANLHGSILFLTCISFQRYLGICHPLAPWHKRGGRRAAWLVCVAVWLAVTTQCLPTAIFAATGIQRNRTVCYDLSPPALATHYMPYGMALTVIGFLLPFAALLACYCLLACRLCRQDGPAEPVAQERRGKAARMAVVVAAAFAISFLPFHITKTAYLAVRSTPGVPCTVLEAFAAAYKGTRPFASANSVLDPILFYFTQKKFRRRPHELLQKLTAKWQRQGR

human P2Y4 receptors, sequence (P51582 whole entry): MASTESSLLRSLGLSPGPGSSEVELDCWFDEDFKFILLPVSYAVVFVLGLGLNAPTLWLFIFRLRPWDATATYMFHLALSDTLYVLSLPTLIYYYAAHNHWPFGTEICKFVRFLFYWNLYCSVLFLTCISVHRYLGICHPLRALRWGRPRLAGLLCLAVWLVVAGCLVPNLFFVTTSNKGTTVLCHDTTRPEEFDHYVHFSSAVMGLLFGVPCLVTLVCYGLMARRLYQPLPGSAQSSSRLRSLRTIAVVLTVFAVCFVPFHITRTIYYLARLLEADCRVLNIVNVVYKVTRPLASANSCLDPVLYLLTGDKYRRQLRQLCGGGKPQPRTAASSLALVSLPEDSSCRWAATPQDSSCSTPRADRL
human P2Y2 receptors, sequence (P41231 whole entry): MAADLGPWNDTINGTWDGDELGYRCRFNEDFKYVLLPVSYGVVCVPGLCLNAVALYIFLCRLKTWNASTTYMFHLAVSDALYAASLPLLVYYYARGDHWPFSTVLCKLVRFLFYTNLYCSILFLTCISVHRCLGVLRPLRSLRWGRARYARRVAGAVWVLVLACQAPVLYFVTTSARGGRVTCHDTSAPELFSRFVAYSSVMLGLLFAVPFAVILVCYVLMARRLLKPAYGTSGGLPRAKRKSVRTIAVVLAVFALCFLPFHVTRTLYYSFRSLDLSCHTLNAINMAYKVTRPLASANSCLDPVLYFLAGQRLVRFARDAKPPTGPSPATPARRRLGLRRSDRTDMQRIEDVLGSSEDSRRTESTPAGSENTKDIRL
human platelet P2Y1 receptors, sequence (P47900 whole entry): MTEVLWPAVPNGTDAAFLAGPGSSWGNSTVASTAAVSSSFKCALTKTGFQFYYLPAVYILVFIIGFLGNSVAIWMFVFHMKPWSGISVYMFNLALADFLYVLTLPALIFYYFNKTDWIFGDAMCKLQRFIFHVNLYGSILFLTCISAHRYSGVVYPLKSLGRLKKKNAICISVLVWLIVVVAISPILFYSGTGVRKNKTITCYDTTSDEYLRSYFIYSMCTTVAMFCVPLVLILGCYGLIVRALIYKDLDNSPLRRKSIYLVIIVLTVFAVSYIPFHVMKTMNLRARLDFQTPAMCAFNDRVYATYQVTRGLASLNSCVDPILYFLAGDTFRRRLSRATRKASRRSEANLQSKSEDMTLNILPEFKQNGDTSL

P2Y1 inhibition IC50±SEM [1]	Compound	IC50 ([2]; read-out: IC50, nM (95% Confidence Interval), no pre-incubation, 3 μM ADP)	IC50 ([2]; read-out: IC50, nM (95% Confidence Interval), pre-incubation with test compound, 5 μM ADP)	IC50 ([2]; read-out: IC50, nM (95% Confidence Interval), pre-incubation with test compound, 20 μM ADP)	P2X1 agonist activity (platelet P2X1 receptors)	Pre-incubation time for full pre-incubation effect [3]	Recovery of ability to express the activation markers after dilution [4]	Effect on human P2Y2 receptors (human P2Y2 receptors)	Effect on human P2Y4 receptors (human P2Y4 receptors)	Effect on human P2Y6 receptors (human P2Y6 receptors)
Not inhibitor	CSCCNc1nc(SCCC(F)(F)F)nc2c1ncn2[C@@H]1O[C@H](COP(=O)(O)OP(=O)(O)C(Cl)(Cl)P(=O)(O)O)[C@@H](O)[C@H]1O [Cangrelor]	–	–	–	–	–	–	–	–	–
–	CSc1nc(N)c2ncn([C@@H]3O[C@H](COP(=O)([S-])OP(=O)([O-])C(Cl)P(=O)([O-])OP(=O)([S-])OC[C@H]4O[C@@H](n5cnc6c(N)nc(SC)nc65)[C@H](O)[C@@H]4O)[C@@H](O)[C@H]3O)c2n1.[Na+].[Na+].[Na+].[Na+] (mixture of isomers) [Compound 5, P^1,P^4-di-(2-methylthio-5′-adenosine) P^1,P^4-dithio-P^2,P^3-chloromethylenetetraphosphate]	36.1 nM	11.6 nM	27.6 nM	practically devoid of agonist activity; also recorded: did not have an effect	≤ 15 min	80–90%	did not have an effect	did not have an effect	did not have an effect
